Active and inactive are the calls of the source. No cut-off for these calls is given here.
What was measured:
[1] = target: 5-hydroxytryptamine receptor 1B (Rattus norvegicus, UniProt P28564); test: Binding affinity for rat 5HT1B receptor
[2] = target: 5-hydroxytryptamine receptor 5A (Homo sapiens, UniProt P47898); test: Inhibitory activity against 5HT5A receptor
[3] = target: 5-hydroxytryptamine receptor 7 (Homo sapiens, UniProt P34969); test: Inhibitory activity against 5HT7 receptor
[4] = target: T1, 5-hydroxytryptamine receptor 1B (Homo sapiens, UniProt P28222); test: Functional activity in FLIPR assay for 5HT1B receptor
T1 sequence (P28222 whole entry): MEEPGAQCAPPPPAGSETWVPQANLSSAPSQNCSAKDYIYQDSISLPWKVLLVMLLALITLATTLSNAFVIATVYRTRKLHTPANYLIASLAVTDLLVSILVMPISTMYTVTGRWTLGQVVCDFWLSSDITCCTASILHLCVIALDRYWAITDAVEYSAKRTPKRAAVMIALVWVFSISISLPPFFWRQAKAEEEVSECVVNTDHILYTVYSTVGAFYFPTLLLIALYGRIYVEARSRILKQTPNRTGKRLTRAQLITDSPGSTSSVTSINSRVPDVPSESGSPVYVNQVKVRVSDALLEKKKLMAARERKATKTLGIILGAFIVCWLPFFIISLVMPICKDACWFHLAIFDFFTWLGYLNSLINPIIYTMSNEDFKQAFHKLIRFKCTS

[5] = target: T1, 5-hydroxytryptamine receptor 1B; test: Intrinsic activity for 5HT1B receptor in FLIPR assay; type: functional
[6] = target: Sodium-dependent noradrenaline transporter (Homo sapiens) (UniProt P23975); test: Inhibitory activity against NET upto 10 uM
Chain of Sodium-dependent noradrenaline transporter (Homo sapiens) (P23975 whole entry): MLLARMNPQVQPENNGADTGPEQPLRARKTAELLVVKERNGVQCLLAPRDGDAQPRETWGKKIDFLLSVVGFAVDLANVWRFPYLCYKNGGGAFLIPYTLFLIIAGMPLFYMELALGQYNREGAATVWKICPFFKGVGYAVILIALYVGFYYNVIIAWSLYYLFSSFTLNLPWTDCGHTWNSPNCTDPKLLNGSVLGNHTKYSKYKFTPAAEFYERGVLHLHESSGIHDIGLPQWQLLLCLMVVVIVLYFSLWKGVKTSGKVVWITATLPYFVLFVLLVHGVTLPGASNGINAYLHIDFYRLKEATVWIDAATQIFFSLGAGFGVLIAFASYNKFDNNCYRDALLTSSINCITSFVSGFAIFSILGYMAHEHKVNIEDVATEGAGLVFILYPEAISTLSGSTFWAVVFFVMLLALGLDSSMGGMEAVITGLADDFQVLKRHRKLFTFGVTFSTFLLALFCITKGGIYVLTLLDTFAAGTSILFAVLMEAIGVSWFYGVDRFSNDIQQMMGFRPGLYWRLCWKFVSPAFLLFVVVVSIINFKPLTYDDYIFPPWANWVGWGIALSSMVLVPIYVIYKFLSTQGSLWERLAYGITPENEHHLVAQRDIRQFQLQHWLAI

[7] = target: T2, 5-hydroxytryptamine receptor 1A (Rattus norvegicus, UniProt P19327); test: Binding affinity for rat 5HT1A receptor
T2 sequence (P19327 whole entry): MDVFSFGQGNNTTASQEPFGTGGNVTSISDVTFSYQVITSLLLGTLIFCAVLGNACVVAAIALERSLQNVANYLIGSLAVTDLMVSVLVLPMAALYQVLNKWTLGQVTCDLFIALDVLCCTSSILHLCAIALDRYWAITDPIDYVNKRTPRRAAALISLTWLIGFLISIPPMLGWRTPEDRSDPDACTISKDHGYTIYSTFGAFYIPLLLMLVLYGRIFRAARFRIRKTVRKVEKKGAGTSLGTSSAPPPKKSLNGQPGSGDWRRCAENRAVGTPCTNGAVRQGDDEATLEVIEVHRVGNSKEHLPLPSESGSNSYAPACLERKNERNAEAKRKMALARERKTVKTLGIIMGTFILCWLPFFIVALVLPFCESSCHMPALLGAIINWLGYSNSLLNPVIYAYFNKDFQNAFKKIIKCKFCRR

[8] = target: T3, 5-hydroxytryptamine receptor 2C (Homo sapiens, UniProt P28335); test: Inhibitory activity against 5HT2C receptor
T3 sequence (P28335 whole entry): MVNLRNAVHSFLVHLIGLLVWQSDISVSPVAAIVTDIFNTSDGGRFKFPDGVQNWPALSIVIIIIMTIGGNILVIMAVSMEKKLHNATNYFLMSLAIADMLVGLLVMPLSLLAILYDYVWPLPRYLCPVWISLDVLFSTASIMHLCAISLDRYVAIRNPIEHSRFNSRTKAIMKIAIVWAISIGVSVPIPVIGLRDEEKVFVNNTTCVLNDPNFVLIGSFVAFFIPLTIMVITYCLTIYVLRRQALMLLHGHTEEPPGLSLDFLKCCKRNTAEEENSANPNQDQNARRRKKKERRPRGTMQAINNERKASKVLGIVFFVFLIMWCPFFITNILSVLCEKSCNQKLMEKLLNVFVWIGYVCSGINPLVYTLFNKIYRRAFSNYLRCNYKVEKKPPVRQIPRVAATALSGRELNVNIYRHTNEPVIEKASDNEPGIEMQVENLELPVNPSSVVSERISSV

[9] = target: T4, Adrenergic receptor alpha-1 (Homo sapiens, UniProt P35348+P25100+P35368); test: Inhibitory activity against Adrenergic alpha-1 receptor; type: protein assay
T4 sequence (P35348 whole entry): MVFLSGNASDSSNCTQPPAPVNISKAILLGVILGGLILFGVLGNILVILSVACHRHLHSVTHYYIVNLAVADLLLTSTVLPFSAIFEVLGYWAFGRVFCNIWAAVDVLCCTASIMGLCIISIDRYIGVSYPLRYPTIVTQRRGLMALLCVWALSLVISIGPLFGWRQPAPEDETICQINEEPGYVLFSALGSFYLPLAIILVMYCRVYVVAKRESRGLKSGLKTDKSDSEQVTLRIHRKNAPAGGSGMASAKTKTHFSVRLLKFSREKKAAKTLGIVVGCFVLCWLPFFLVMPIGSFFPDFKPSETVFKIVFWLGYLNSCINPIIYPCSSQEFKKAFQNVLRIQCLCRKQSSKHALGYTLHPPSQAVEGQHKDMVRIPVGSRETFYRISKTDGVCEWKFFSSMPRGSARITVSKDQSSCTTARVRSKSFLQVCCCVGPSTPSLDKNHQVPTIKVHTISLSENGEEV
T4 sequence (P25100 whole entry): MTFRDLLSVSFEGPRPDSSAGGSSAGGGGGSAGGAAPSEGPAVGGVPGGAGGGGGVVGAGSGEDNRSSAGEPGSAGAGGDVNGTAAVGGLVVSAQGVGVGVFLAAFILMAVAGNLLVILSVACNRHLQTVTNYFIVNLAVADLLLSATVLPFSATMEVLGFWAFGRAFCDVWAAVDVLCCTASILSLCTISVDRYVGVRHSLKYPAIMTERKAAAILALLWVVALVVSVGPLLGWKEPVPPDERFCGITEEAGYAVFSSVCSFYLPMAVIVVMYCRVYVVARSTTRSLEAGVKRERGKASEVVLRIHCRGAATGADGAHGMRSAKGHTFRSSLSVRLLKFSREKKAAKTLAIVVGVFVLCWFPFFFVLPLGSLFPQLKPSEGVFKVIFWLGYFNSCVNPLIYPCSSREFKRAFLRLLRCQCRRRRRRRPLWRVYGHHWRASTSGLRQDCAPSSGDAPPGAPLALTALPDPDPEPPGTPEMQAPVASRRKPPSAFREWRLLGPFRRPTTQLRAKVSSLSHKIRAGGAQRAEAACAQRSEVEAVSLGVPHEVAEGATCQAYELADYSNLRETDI
T4 sequence (P35368 whole entry): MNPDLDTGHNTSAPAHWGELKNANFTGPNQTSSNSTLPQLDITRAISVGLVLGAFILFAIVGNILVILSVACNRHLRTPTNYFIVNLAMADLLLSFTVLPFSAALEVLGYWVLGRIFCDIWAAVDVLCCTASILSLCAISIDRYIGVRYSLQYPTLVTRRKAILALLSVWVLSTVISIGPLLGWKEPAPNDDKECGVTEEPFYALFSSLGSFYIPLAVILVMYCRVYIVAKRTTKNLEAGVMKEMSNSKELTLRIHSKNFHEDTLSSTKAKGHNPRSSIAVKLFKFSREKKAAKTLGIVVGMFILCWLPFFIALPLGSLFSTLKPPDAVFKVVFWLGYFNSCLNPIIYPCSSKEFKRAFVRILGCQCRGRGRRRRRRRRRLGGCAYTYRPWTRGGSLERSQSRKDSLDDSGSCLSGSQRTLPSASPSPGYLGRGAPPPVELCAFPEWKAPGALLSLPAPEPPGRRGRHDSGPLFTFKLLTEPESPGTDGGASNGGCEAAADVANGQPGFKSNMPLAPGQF

[10] = target: Sodium-dependent dopamine transporter (Homo sapiens) (UniProt Q01959); test: Inhibitory activity against DAT upto 10 uM
Chain of Sodium-dependent dopamine transporter (Homo sapiens) (Q01959 whole entry): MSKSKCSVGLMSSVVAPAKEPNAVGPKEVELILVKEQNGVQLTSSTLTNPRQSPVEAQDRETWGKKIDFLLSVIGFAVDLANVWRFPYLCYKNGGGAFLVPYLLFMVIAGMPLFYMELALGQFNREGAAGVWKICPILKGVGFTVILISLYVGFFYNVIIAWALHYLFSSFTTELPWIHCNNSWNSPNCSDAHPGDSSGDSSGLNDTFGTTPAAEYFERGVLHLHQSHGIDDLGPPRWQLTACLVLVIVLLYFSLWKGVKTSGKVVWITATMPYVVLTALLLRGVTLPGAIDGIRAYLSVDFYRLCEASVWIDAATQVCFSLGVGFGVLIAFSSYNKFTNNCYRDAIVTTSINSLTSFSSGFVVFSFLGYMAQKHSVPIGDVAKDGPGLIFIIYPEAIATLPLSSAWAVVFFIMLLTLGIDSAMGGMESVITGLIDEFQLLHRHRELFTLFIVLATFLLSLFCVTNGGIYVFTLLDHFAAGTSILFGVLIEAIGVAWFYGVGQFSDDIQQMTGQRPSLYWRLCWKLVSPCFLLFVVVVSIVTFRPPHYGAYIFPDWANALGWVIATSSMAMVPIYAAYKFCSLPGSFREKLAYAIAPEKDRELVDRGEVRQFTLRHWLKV

[11] = target: T5, 5-hydroxytryptamine receptor 1A (Homo sapiens) (UniProt P08908); test: Functional activity in [35S]GTP-gamma-S assay for 5HT1A receptor
T5 sequence (whole entry): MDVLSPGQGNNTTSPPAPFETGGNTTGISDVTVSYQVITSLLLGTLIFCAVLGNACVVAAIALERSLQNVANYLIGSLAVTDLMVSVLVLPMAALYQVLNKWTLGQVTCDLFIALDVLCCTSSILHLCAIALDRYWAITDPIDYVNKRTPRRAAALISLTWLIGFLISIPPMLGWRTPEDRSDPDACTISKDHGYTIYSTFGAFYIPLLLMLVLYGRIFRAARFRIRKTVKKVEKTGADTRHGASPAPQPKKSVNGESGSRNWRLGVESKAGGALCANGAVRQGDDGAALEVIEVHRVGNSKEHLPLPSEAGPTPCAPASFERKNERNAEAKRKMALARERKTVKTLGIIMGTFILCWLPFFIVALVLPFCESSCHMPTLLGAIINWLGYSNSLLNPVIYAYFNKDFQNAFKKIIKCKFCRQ

[12] = target: T5, 5-hydroxytryptamine receptor 1A (Homo sapiens); test: Intrinsic activity for 5HT1A receptor in [35S]GTP-gamma-S assay; type: functional
[13] = target: Sodium-dependent serotonin transporter (Homo sapiens) (UniProt P31645); test: Inhibitory activity against SERT upto 10 uM
Chain of Sodium-dependent serotonin transporter (Homo sapiens) (P31645 whole entry, looked up): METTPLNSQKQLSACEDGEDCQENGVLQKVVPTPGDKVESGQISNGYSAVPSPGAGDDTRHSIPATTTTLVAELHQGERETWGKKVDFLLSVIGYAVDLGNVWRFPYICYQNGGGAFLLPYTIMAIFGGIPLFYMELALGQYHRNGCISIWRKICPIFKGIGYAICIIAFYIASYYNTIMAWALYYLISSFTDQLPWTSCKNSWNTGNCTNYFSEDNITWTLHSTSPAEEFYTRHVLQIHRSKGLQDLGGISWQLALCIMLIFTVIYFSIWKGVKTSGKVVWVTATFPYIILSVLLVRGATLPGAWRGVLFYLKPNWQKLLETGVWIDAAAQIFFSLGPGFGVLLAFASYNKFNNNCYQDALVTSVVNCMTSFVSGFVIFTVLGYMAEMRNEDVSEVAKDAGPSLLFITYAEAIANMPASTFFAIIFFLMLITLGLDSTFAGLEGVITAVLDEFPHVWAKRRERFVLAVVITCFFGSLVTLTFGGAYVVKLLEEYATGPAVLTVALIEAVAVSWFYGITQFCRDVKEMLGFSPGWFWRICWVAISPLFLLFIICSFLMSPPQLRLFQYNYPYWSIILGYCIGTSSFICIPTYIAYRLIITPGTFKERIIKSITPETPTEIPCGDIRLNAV

[14] = target: T1, 5-hydroxytryptamine receptor 1B; test: Inhibitory activity against human recombinant 5HT1B receptor co-expressed with G-protein chimera Gqo5 in HEK293 cells by FLIPR; type: functional, cell-based
[15] = target: T6, 5-hydroxytryptamine receptor 1A (Homo sapiens, UniProt P08908); test: Displacement of [35S]GTP-gamma-S from human recombinant 5HT1A receptor; type: functional
T6 sequence (P08908 whole entry): T5 sequence (whole entry)

[16] = target: D(3) dopamine receptor (Homo sapiens, UniProt P35462); test: Inhibitory activity against dopamine D3 receptor
Chain of D(3) dopamine receptor (P35462 whole entry): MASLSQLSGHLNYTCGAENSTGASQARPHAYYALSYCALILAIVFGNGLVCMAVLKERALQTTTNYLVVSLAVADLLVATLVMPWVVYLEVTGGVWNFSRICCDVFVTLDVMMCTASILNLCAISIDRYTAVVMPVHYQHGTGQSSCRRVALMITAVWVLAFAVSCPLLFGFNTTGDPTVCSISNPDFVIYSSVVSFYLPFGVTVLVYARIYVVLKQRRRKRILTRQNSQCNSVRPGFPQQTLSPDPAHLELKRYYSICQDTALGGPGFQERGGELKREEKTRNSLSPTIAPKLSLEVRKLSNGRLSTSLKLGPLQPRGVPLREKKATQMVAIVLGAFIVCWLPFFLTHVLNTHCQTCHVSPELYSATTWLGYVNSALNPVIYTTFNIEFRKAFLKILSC

Chain of 5-hydroxytryptamine receptor 1B (Rattus norvegicus, UniProt P28564) (P28564 whole entry): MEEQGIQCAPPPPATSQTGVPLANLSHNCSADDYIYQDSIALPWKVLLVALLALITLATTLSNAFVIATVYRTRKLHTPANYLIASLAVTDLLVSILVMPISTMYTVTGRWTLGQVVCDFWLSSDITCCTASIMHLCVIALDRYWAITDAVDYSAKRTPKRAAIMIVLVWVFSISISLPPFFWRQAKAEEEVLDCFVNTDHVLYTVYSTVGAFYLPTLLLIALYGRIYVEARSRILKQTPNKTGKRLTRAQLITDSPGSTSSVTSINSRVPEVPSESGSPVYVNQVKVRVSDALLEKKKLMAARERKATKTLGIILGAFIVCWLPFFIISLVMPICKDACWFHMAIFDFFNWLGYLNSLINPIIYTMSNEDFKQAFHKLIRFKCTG
Chain of 5-hydroxytryptamine receptor 5A (P47898 whole entry): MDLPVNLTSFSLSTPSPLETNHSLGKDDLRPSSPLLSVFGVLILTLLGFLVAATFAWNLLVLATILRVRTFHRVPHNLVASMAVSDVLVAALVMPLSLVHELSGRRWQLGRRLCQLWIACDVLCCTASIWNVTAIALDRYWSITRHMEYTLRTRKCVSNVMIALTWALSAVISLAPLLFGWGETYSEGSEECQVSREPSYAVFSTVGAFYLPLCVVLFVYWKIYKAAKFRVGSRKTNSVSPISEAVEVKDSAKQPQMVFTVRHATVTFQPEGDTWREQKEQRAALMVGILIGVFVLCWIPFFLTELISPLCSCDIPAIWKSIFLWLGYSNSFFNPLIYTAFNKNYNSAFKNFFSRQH
Chain of 5-hydroxytryptamine receptor 7 (P34969 whole entry): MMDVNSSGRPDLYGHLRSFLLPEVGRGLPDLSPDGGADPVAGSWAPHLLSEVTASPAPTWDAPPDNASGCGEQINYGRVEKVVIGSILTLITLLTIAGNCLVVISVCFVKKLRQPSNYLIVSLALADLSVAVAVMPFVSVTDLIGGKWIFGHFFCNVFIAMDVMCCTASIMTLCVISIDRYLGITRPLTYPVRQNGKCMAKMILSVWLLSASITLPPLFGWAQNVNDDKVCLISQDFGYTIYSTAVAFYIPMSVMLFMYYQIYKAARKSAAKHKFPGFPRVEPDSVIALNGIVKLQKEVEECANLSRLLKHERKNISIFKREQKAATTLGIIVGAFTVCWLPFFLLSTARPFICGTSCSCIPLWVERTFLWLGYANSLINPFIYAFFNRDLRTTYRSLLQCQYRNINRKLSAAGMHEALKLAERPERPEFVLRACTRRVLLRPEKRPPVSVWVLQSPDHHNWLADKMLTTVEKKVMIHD

SMILES	Ki [1] [nM]	Ki [2] [nM]	Ki [3] [µM]	Activity ([4]; filed as antagonist)	Emax [5] [%]	Activity [6]	Ki [7] [nM]	Ki [8] [µM]	Ki [9] [nM]	Activity [10]	Activity ([11]; filed as antagonist)	Emax [12] [%]	Activity [13]	IC50 [14] [nM]	Ki [14] [nM]	IC50 [15] [nM]	Ki [15] [nM]	Ki [16] [nM]	Activity ([11]; filed as partial agonist)	Activity ([4]; filed as partial agonist)
CN1CCc2c(sc3ncn(CCN4CCN(c5ccnc6ccccc56)CC4)c(=O)c23)C1	117	> 1000	4.48	Antagonist	9	inactive	23	5.5	118.1	inactive	Antagonist	6	inactive	85	9.7	1300	6.5	1.3		
CN1CCc2c(sc3ncn(CCN4CCN(c5cccc6c5OCC6)CC4)c(=O)c23)C1				Antagonist	< 20				0.2			10			0.5		0.6		Partial agonist	
CN1CCc2c(sc3ncn(CCN4CCN(c5cccc6cnccc56)CC4)c(=O)c23)C1					20				129.1			10			0.9		0.9		Partial agonist	Partial agonist
CN1CCc2c(sc3ncn(CCN4CCN(c5ccccc5-c5ccccc5)CC4)c(=O)c23)C1				Antagonist	< 20				1.1			10			1.1		4.1		Partial agonist	
COc1ccccc1N1CCN(CCn2cnc3sc4c(c3c2=O)CCN(C)C4)CC1					20				0.4		Antagonist	< 10			1.4		0.7			Partial agonist

Reference: ChEMBL document CHEMBL1141234, “Synthesis and SAR of highly potent dual 5-HT1A and 5-HT1B antagonists as potential antidepressant drugs” (Bioorg Med Chem Lett, 2005)
